Data on 47 compounds can be found in patent publication US4298734A, “Diazaheterocyclopurines and triazolopyrimidines” (Mead Johnson & Company, priority 1979, dated 1981).

Broadly, the ED50 is the dose at which the effect has come halfway, by size or by number of responders.

The test system of assay [1] is methacholine-induced bronchospasm in the rat. Briefly: Methacholine-induced bronchospasm (pulmonary ventilation pressure) in anesthetized rat. The conditions noted are these: intraduodenal; for Methacholine Bronchospasm, ED50 / ED50: 50% inhibition of bronchospasm; for inhibition in vivo at 10 mg/kg: read-out: Methacholine Bronchospasm, percent inhibition; for inhibition in vivo at 10 mg/kg / Methacholine Bronchospasm, inactive at dose: dose 10 mg./kg.; for Methacholine Bronchospasm, percent inhibition: dose 30 mg./kg. It is filed as in vivo. From the text: Brochodilator activity in vivo (Table XI, column 6) was estimated by determining the dose of test compound required to inhibit methacholine-induced brochospasm in the rat. […] For this test, pulmonary ventilation pressure (PVP) was the parameter measured using anesthetized animals.

Assay [2] relates to passive cutaneous anaphylaxis reaction (PCA) in the rat. Briefly: Passive cutaneous anaphylaxis reaction (PCA) in the rat. Also on record: key to PCA, inactive at dose: I: inactive at the specified dose. The conditions noted are these: for PCA, ED50 / ED50: oral; for inhibition in vivo at 50 mg/kg: oral dose 50 mg./kg. It is filed as in vivo. The procedure:
Antiallergy activity in terms of ability to inhibit the immediate hypersensitivity reaction was measured by means of the passive cutaneous anaphylaxis reaction (PCA) in the rat (Table XI, column 7). The animals were passively sensitized by the intradermal injection of rat reagenic antiserum at various locations on the shaved back skin and 48 hours later the test drug was administered. This was followed by challenge at a predetermined interval, usually 15 minutes, by intravenous injection of egg albumin and Evans' blue dye. The dermal reaction at the sensitized site was evaluated and scored by measuring the diameter of the spot generated at the sensitized intradermal injection site. The values reported in the table are either ED50 values for the test compound in terms of mg./kg. of body weight administered orally, or percent inhibition of the dose specified in parentheses.

The subject of assay [3] is rats actively sensitized with egg albumin and B. pertussis vaccine. Nature of the assay: Allergic bronchospasm in rats actively sensitized with egg albumin. The format is in vivo. The conditions noted are these: rat, oral, egg albumin challenge, PVP. The procedure: Antiallergy/bronchodilator studies (Table XI, column 8) were also conducted using rats which were actively sensitized with egg albumin and B. pertussis vaccine as for preparation of the reagenic antisera in the PCA test. Fifteen days following sensitization, the animals were prepared for measurement of PVP as for the methacholine-induced bronchospasm test, and changes in PVP in response to a standardized challenge of egg albumin following treatment with test drug were measured. The values reported in the table are ED50 values in terms of mg./kg. of body weight for the test compound administered orally.

Assay [4] in a line: Anticholinergic action mediating bronchodilator activity.
Setting [5] is: read-out: PCA, percent inhibition.
Where [6] appears, read: oral dose 10 mg./kg., read-out: PCA, percent inhibition.
The mark [7] stands for this setting: oral dose 25 mg./kg., read-out: PCA, percent inhibition.

For the compound `CC1N=C2N(Cc3ccc(Cl)cc3)c3nc[nH]c3C(=O)N2C1C` (mixture of isomers) [106(mixed)], the “Methacholine Bronchospasm, ED50” value in assay [1] came out at 3.7 mg/kg. For the same compound, the “PCA, ED50” value in assay [2] was determined as 20.3 mg/kg. Moreover, the “Allergic Bronchospasm, ED50” value in assay [3] is 3.51 mg/kg. Taken in the same sequence, the figures for `CC1CN2C(=O)c3[nH]cnc3N(Cc3ccc(Cl)cc3)C2=N1` (racemic) [Procedure 100] were 2.1 mg/kg, 10.6 mg/kg and 1.5 mg/kg. The like results for `Cc1nc2c([nH]1)C(=O)N1CC(C)N=C1N2Cc1ccc(Cl)cc1` (racemic) [Procedure 101] were, in that order, 1.00 mg/kg, 30.2 mg/kg and 1.2 mg/kg.

Consider `CC1CN2C(=O)c3c(ncn3C)N(Cc3ccc(Cl)cc3)C2=N1` (racemic) [Procedure 102], for which the “Methacholine Bronchospasm, ED50” value in assay [1] came to 1.1 mg/kg. For the same compound, the “PCA, ED50” value in assay [2] was determined as 28.9 mg/kg. For the same compound, the “Allergic Bronchospasm, ED50” value in assay [3] was 3.4 mg/kg.

With `CC1N=C2N(Cc3ccc(Cl)cc3)c3nc[nH]c3C(=O)N2C1C` (stereo not drawn) [106(cis)], in assay [1], the “Methacholine Bronchospasm, ED50” value stood at 3.0 mg/kg. Besides, the “PCA, ED50” value in assay [2] worked out at 28.5 mg/kg.

For the compound `CC1N=C2N(Cc3ccc(Cl)cc3)c3nc[nH]c3C(=O)N2C1C` (stereo not drawn) [106(trans)], the “Methacholine Bronchospasm, ED50” value in assay [1] came to 5.0 mg/kg. Besides, the “PCA, ED50” value in assay [2] was 35.5 mg/kg. With `O=C1c2[nH]cnc2N(Cc2cccc(Cl)c2)C2=NCCN12` [Procedure 5], the inhibition in vivo at 10 mg/kg in assay [1] turned out to be 64%. Further, the inhibition in vivo at 50 mg/kg in assay [2] (setting [5]) was found to be 43%. `O=C1c2[nH]cnc2N(Cc2ccccc2Cl)C2=NCCN12` [Procedure 6]: the inhibition in vivo at 50 mg/kg in assay [2] (setting [5]) is 25%. For the compound `O=C1c2[nH]cnc2N(Cc2ccc(Cl)c(Cl)c2)C2=NCCN12` [Procedure 7], the “PCA, inactive at dose” value in assay [2] (oral dose 25 mg./kg.) is “I”. Take `O=C1c2[nH]cnc2N(Cc2ccc(F)cc2)C2=NCCN12` [Procedure 8]: the values for the inhibition in vivo at 10 mg/kg in assay [1] and in assay [2] (setting [6]) were 55.5% and 29%, respectively. Turning to `COc1ccccc1CN1C2=NCCN2C(=O)c2[nH]cnc21` [Procedure 9], the “PCA, inactive at dose” value in assay [2] (oral dose 10 mg./kg.) is given as “I”. Consider `O=C1c2[nH]cnc2N(Cc2ccccn2)C2=NCCN12` [Procedure 10], for which the inhibition in vivo at 25 mg/kg in assay [2] (setting [7]) worked out at 40%. Take `COc1ccc(CCN2C3=NCCN3C(=O)c3[nH]cnc32)cc1OC` [Procedure 11]: the inhibition in vivo at 10 mg/kg in assay [2] (setting [6]) amounted to 25%.

`O=C1c2[nH]cnc2N(CCOc2ccccc2)C2=NCCN12` [Procedure 12] registered an ED50 in assay [1] of 2.3 mg/kg. In assay [2] (setting [7]), the inhibition in vivo at 25 mg/kg turned out to be 27%. In addition, in assay [4], the anticholinergic action result is “anticholinergic action of a type which mediates improved bronchodilator activity”.

On to `CC(C)CN1C2=NCCN2C(=O)c2[nH]cnc21` [Procedure 13], for which, in assay [1], the inhibition in vivo at 10 mg/kg was 63%. For the same compound, the “PCA, inactive at dose” value in assay [2] (oral dose 25 mg./kg.) is listed as “I”. For the compound `CCc1nc2c([nH]1)C(=O)N1CCN=C1N2Cc1ccc(Cl)cc1` [Procedure 14], the inhibition in vivo at 10 mg/kg in assay [1] amounted to 26%. For the same compound, the inhibition in vivo at 50 mg/kg in assay [2] (setting [5]) worked out at 29%. In assay [1], `Cc1nc2c([nH]1)C(=O)N1CCN=C1N2Cc1ccc(Cl)cc1` [Procedure 15] registered an ED50 of 1.79 mg/kg. Also, the inhibition in vivo at 30 mg/kg in assay [2] (oral dose 30 mg./kg., read-out: PCA, percent inhibition) came out at 40%. With `CC(C)c1nc2c([nH]1)C(=O)N1CCN=C1N2Cc1ccccc1Cl` [Procedure 16], the “PCA, inactive at dose” value in assay [2] (oral dose 25 mg./kg.) was “I”. As for `O=C1c2[nH]c(Br)nc2N(Cc2ccc(Cl)cc2)C2=NCCN12` [Procedure 17], the inhibition in vivo at 25 mg/kg in assay [2] (setting [7]) came out at 34%. Same read-out and setting: the result for `CC(C)C(=O)N1C2=NCCN2C(=O)c2[nH]c(C(C)C)nc21` [Procedure 20] reads 46%. For `O=C1c2[nH]cnc2N(Cc2ccccc2)C2=NCCN12` [Procedure 23], the “PCA, inactive at dose” value in assay [2] (oral dose 25 mg./kg.) is “I”.

For `CCCCn1cnc2c1C(=O)N1CCN=C1N2Cc1ccc(Cl)cc1` [Procedure 24], the inhibition in vivo at 10 mg/kg in assay [1] stood at 16%. In addition, the “PCA, inactive at dose” value in assay [2] (oral dose 10 mg./kg.) is “I”. With `O=C1c2[nH]nnc2N(Cc2ccc(Cl)cc2)C2=NCCN12` [Procedure 25], the “PCA, inactive at dose” value in assay [2] (oral dose 10 mg./kg.) is “I”. Regarding `COc1ccc(CCN2C3=NCCN3C(=O)c3[nH]nnc32)cc1OC` [Procedure 26], the inhibition in vivo at 10 mg/kg in assay [2] (setting [6]) is 41%. As for `O=C1c2[nH]nnc2N(Cc2ccc(F)cc2)C2=NCCN12` [Procedure 27], the inhibition in vivo at 10 mg/kg in assay [1] was found to be 30%. Moreover, the median effective dose (ED50) in assay [2] amounted to 17.7 mg/kg.

For `O=C1c2[nH]nnc2N(Cc2ccc(Cl)c(Cl)c2)C2=NCCN12` [Procedure 28], in assay [2] (oral dose 10 mg./kg.), the “PCA, inactive at dose” value is on record as “I”. For `CC(C)CN1C2=NCCN2C(=O)c2c1ncn2CCOc1ccccc1` [Procedure 39], the inhibition in vivo at 10 mg/kg in assay [1] came out at 34.7%. Further, the “PCA, inactive at dose” value in assay [2] (oral dose 25 mg./kg.) is on record as “I”.

As to `O=C1c2c(ncn2Cc2ccc(F)cc2)N(Cc2ccc(F)cc2)C2=NCCN12` [Procedure 44], in assay [1], the inhibition in vivo at 10 mg/kg turned out to be 0%. The “PCA, inactive at dose” value in assay [2] (oral dose 10 mg./kg.) is listed as “I”.

As for `Cn1c(Br)nc2c1C(=O)N1CCN=C1N2Cc1ccc(Cl)cc1` [Procedure 46], the 50% effective dose (ED50) in assay [1] was greater than 30 mg/kg. In the case of `CCCCCCCCN1C2=NCCN2C(=O)c2[nH]cnc21` [Procedure 54], in assay [2] (oral dose 25 mg./kg.), the “PCA, inactive at dose” value is recorded as “I”. Regarding `CCCCCCCCN1C2=NCCN2C(=O)c2[nH]c(C)nc21` [Procedure 55], the inhibition in vivo at 25 mg/kg in assay [2] (setting [7]) came to 34.9%. For `CCCCCCCCN1C2=NCCN2C(=O)c2[nH]c(C(C)C)nc21` [Procedure 56], the inhibition in vivo at 25 mg/kg in assay [2] (setting [7]) stood at 25%. Consider `O=C1c2[nH]cnc2N(CCOc2ccc(Cl)cc2)C2=NCCN12` [Procedure 57], for which the inhibition in vivo at 10 mg/kg in assay [1] was determined as 66%. In addition, in assay [2] (setting [7]), the inhibition in vivo at 25 mg/kg worked out at 31.7%. In turn, `Cc1nc2c([nH]1)C(=O)N1CCN=C1N2CCOc1ccccc1` [Procedure 58] gave an ED50 in assay [1] of 0.81 mg/kg. Also, the inhibition in vivo at 25 mg/kg in assay [2] (setting [7]) worked out at 29%. Also, in assay [4], the anticholinergic action result was “anticholinergic action of a type which mediates improved bronchodilator activity”. On to `O=C1c2[nH]cnc2N(CC2CCCCC2)C2=NCCN12` [Procedure 59], for which the inhibition in vivo at 10 mg/kg in assay [1] was determined as 45.8%. The inhibition in vivo at 25 mg/kg in assay [2] (setting [7]) stood at 29%. `O=C1c2[nH]cnc2N(CCc2ccc(Cl)cc2)C2=NCCN12` [Procedure 60]: in assay [1], the “Methacholine Bronchospasm, inactive at dose” value is “I”. In addition, the “PCA, inactive at dose” value in assay [2] (oral dose 25 mg./kg.) was “I”. For the compound `O=C1c2[nH]cnc2N(CCCc2ccccc2)C2=NCCN12` [Procedure 62], the inhibition in vivo at 10 mg/kg in assay [1] came to 22%. In assay [2] (oral dose 25 mg./kg.), the “PCA, inactive at dose” value is reported as “I”. Take `Cc1nc2c([nH]1)C(=O)N1CCN=C1N2CC(C)C` [Procedure 63]: the ED50 in assay [1] was found to be 3.3 mg/kg; in assay [2] it was 33.9 mg/kg; in assay [3] (Bordetella pertussis), 5.4 mg/kg. For `Cn1cnc2c1C(=O)N1CCN=C1N2Cc1ccc(Cl)cc1` [Procedure 67], the “Methacholine Bronchospasm, ED50” value in assay [1] stood at 8.8 mg/kg. Further, in assay [2] (oral dose 25 mg./kg.), the “PCA, percent inhibition” value stood at 26%. For the compound `O=C1c2[nH]nnc2N(CCOc2ccccc2)C2=NCCN12` [Procedure 74], in assay [1], the “Methacholine Bronchospasm, inactive at dose” value is on record as “I”. In assay [2] (oral dose 25 mg./kg.), the “PCA, inactive at dose” value was “I”.

As for `S=C1c2[nH]cnc2N(Cc2ccc(Cl)cc2)C2=NCCN12` [Procedure 75], the “Methacholine Bronchospasm, percent inhibition” value in assay [1] is on record as 21%. Moreover, the “PCA, inactive at dose” value in assay [2] (oral dose 25 mg./kg.) is recorded as “I”. For `N=C1c2[nH]cnc2N(Cc2ccc(Cl)cc2)C2=NCCN12` [Procedure 77], the “Methacholine Bronchospasm, percent inhibition” value in assay [1] came out at 22%.

In assay [1], `CC(C)c1nc2c([nH]1)C(=O)N1CCN=C1N2CCOc1ccccc1` [Procedure 108] returned an ED50 of 4 mg/kg. On to `CC(C)CN1C2=NC(C)CN2C(=O)c2[nH]cnc21` (centres unmarked) [Procedure 109], for which the ED50 in assay [1] is 4.6 mg/kg. Still for that read-out and setting: then `Cc1nc2c(n1C)C(=O)N1CCN=C1N2Cc1ccc(Cl)cc1` [Procedure 117], with 5.7 mg/kg. For the compound `O=c1c2[nH]cnc2n(Cc2ccc(Cl)cc2)c2nccn12` [Procedure 124], the “Methacholine Bronchospasm, ED50” value in assay [1] was found to be 8.1 mg/kg. In the case of `Cn1c(=O)c2[nH]cnc2n(C)c1=O` [Theophylline, reference compound], the ED50 turned out to be 19.2 mg/kg in assay [1] and 41.5 mg/kg in assay [2].
